pIC50: −log10 of the molar value.
How the values were obtained:
[1] = system: NLRP3 inflammasome pathway; experiment: NLRP3 inflammasome pathway activation assay, MSU stimulation, IL-1β release (AlphaLISA); format: cell-based; conditions: PMA-differentiated, LPS-primed human monocyte-like cells, MSU 150 µg/ml for 3 h
Experimental: (§1) The following assays were used to determine the inhibitory activity of test compounds on the NLRP3 inflammasome pathway using common stimuli Nigericin (Invivogen) or monosodium urate crystals (MSU) (Invivogen).
(§2) Human monocyte-like cells were cultured in RPMI-1640 Glutamax medium supplemented with 10% heat inactivated FCS and 50 U/ml penicillin-streptomycin (Life Technologies).
(§3) Human monocyte-like cells were seeded at 75000 per well in a 96-well plate and were differentiated overnight into macrophages with 10 ng/ml PMA (Phorbol Myristate Acetate). The following day, medium containing 10 ng/ml LPS (Lipopolysaccharide) were added. After 3 hours of LPS priming, concentrations of test compound in the range from 100 µM to 6 nM were added 30 min prior to NLRP3 inflammasome pathway stimulation with Nigericin 3.75 µM or MSU 150 µg/ml for 3 h.
(§4) For IL-1β quantification, supernatants were analyzed using AlphaLISA kits according to the manufacturer’s instructions (Perkin Elmer AlphaLISA AL220F). Briefly, in a 384-well OptiPlate™ microplate, 5 µl of sample was mixed, with 20 µl of AlphaLISA Anti-Analyte Acceptor beads (10 µg/mL final) and Biotinylated Antibody Anti-Analyte (1 nM final). Then, incubated 60 minutes at RT, then 25 µL of 2X SA-Donor beads (40 µg/mL final) were added and incubated 30 minutes at RT in the dark. Reading was done using an EnVision-Alpha Reader (PerkinElmer).
(§5) IC50(concentration corresponding to 50% inhibition) were determined using GraphPad Prism 8.

[2] = system: NLRP3 inflammasome pathway; experiment: NLRP3 inflammasome pathway activation assay, Nigericin stimulation, IL-1β release (AlphaLISA); format: cell-based; conditions: PMA-differentiated, LPS-primed human monocyte-like cells, Nigericin 3.75 µM for 3 h
Experimental: as §1, §2, §3, §4, §5

Row | Compound | pIC50 [1] | pIC50 [2] | pIC50 ([2]; Homo sapiens, 3 h)
1 | 2-((1,2,3,5,6,7-hexahydro-s-indacen-4-yl)amino)-5-(5-isopropylisoxazol-3-yl)-4,5-dihydrooxazole-5-carboxylate [Example 28] | > 6.00 | 5.00 to 6.00 | –
2 | CCOC(=O)C1(c2ccccc2)CN=C(Nc2c3c(cc4c2CCC4)CCC3)O1 (racemic) [Example 1, Ethyl 2-((1,2,3,5,6,7-hexahydro-s-indacen-4-yl)amino)-5-phenyl-4,5-dihydrooxazole-5-carboxylate] | > 6.00 | – | > 6.00
3 | CCOC(=O)C1(c2ccccn2)CN=C(Nc2c3c(cc4c2CCC4)CCC3)O1 (racemic) [Example 8, Ethyl 2-((1,2,3,5,6,7-hexahydro-s-indacen-4-yl)amino)-5-(pyridin-2-yl)-4,5-dihydrooxazole-5-carboxylate] | > 6.00 | – | > 6.00
4 | CCOC(=O)C1(c2ccc(Cl)cc2)CN=C(Nc2c3c(cc4c2CCC4)CCC3)O1 (racemic) [Example 10, Ethyl 5-(4-chlorophenyl)-2-((1,2,3,5,6,7-hexahydro-s-indacene-4-yl)amino)-4,5-dihydrooxazole-5-carboxylate] | 5.00 to 6.00 | – | 5.00 to 6.00
5 | CCOC(=O)C(O)(CNC(=S)Nc1c2c(cc3c1CCC3)CCC2)c1cc(C(C)(C)O)on1 (racemic) [Example 14, Ethyl 3-(3-(1,2,3,5,6,7-hexahydro-s-indacen-4-yl)thioureido)-2-hydroxy-2-(5-(2-hydroxypropan-2-yl)isoxazol-3-yl)propanoate] | > 6.00 | > 6.00 | –
6 | CCOC(=O)C1(c2ccccc2)CN=C(Nc2c3c(c(F)c4c2CCC4)CCC3)O1 (racemic) [Example 30, ethyl 2-((8-fluoro-1,2,3,5,6,7-hexahydro-s-indacen-4-yl)amino)-5-phenyl-4,5-dihydrooxazole-5-carboxylate] | > 6.00 | – | 5.00 to 6.00
7 | CCOC(=O)C1(c2ncccn2)CN=C(Nc2c3c(cc4c2CCC4)CCC3)O1 (racemic) [Example 50, ethyl 2-((1,2,3,5,6,7-hexahydro-s-indacen-4-yl)amino)-5-(pyrimidin-2-yl)-4,5-dihydrooxazole-5-carboxylate] | 5.00 to 6.00 | – | > 6.00
8 | CCOC(=O)C1(c2cc(C(C)(C)O)on2)OC(Nc2c3c(cc4c2CCC4)CCC3)=NC1C (racemic) [Example 52, ethyl 2-((1,2,3,5,6,7-hexahydro-s-indacen-4-yl)amino)-5-(5-(2-hydroxypropan-2-yl)isoxazol-3-yl)-4-methyl-4,5-dihydrooxazole-5-carboxylate] | 5.00 to 6.00 | – | > 6.00
9 | CC(C)(C)OC(=O)C1(c2ccno2)CN=C(Nc2c3c(cc4c2CCC4)CCC3)O1 (racemic) [Example 90, tert-butyl 2-((1,2,3,5,6,7-hexahydro-s-indacen-4-yl)amino)-5-(isoxazol-5-yl)-4,5-dihydrooxazole-5-carboxylate] | 5.00 to 6.00 | – | > 6.00
10 | CCOC(=O)C1(c2nccn2C)CN=C(Nc2c3c(cc4c2CCC4)CCC3)O1 (single isomer, unassigned) [Example 5, Ethyl 2-((1,2,3,5,6,7-hexahydro-s-indacen-4-yl)amino)-5-(1-methyl-1H-imidazol-2-yl)-4,5-dihydrooxazole-5-carboxylate] | > 6.00 | > 6.00 | –
11 | CCOC(=O)C1(c2ccc(OC)nc2)CN=C(Nc2c3c(cc4c2CCC4)CCC3)O1 (single isomer, unassigned) [Example 7, Ethyl 2-((1,2,3,5,6,7-hexahydro-s-indacen-4-yl)amino)-5-(6-methoxypyridin-3-yl)-4,5-dihydrooxazole-5-carboxylate] | > 6.00 | > 6.00 | –
12 | CCOC(=O)C1(c2ccccn2)CN=C(Nc2c3c(cc4c2CCC4)CCC3)O1 (single isomer, unassigned) [Example 9, Ethyl 2-((1,2,3,5,6,7-hexahydro-s-indacen-4-yl)amino)-5-(pyridin-2-yl)-4,5-dihydrooxazole-5-carboxylate] | > 6.00 | > 6.00 | –
13 | CCOC(=O)C1(c2ccc(Cl)cc2)CN=C(Nc2c3c(cc4c2CCC4)CCC3)O1 (single isomer, unassigned) [Example 10a, Ethyl 5-(4-chlorophenyl)-2-((1,2,3,5,6,7-hexahydro-s-indacene-4-yl)amino)-4,5-dihydrooxazole-5-carboxylate] | > 6.00 | 4.52 to 5.00 | –
14 | CCOC(=O)C1(c2cccnc2)CN=C(Nc2c3c(cc4c2CCC4)CCC3)O1 (single isomer, unassigned) [Example 11, Ethyl 2-((1,2,3,5,6,7-hexahydro-s-indacen-4-yl)amino)-5-(pyridin-3-yl)-4,5-dihydrooxazole-5-carboxylate] | > 6.00 | > 6.00 | –
15 | CCOC(=O)C1(c2cccc(Cl)c2)CN=C(Nc2c3c(cc4c2CCC4)CCC3)O1 (single isomer, unassigned) [Example 13a, Ethyl 5-(3-chlorophenyl)-2-((1,2,3,5,6,7-hexahydro-s-indacen-4-yl)amino)-4,5-dihydrooxazole-5-carboxylate] | > 6.00 | > 6.00 | –
16 | CCOC(=O)C(O)(CNC(=S)Nc1c2c(cc3c1CCC3)CCC2)c1cc(C(C)(C)O)on1 (single isomer, unassigned) [Example 14a, Ethyl 3-(3-(1,2,3,5,6,7-hexahydro-s-indacen-4-yl)thioureido)-2-hydroxy-2-(5-(2-hydroxypropan-2-yl)isoxazol-3-yl)propanoate] | > 6.00 | > 6.00 | –
17 | CCOC(=O)C1(c2ccccc2)CN=C(Nc2c3c(cc4c2CCC4)CCC3)O1 (stereo not drawn) [Example 2, Ethyl 2-((1,2,3,5,6,7-hexahydro-s-indacen-4-yl)amino)-5-phenyl-4,5-dihvdrooxazole-5-carboxylate] | 5.00 to 6.00 | 5.00 to 6.00 | –
18 | O=C(O)C1(c2ccccn2)CN=C(Nc2c3c(cc4c2CCC4)CCC3)O1 (stereo not drawn) [Example 25, 2-((1,2,3,5,6,7-hexahydro-s-indacen-4-yl)amino)-5-(pyridin-2-yl)-4,5-dihydrooxazole-5-carboxylic acid] | 5.00 to 6.00 | – | –
19 | O=C(O)C1(c2cccnc2)CN=C(Nc2c3c(cc4c2CCC4)CCC3)O1 (stereo not drawn) [Example 26, 2-((1,2,3,5,6,7-hexahydro-s-indacen-4-yl)amino)-5-(pyridin-3-yl)-4,5-dihydrooxazole-5-carboxylic acid] | 5.00 to 6.00 | – | –
20 | CCOC(=O)C1(c2cc(C(C)(C)O)on2)OC(Nc2c3c(cc4c2CCC4)CCC3)=NC1CC (stereo not drawn) [Example 51, ethyl 4-ethyl-2-((1,2,3,5,6,7-hexahydro-s-indacen-4-yl)amino)-5-(5-(2-hydroxypropan-2-yl)isoxazol-3-yl)-4,5-dihydrooxazole-5-carboxylate] | 5.00 to 6.00 | – | –
21 | CC(C)OC(=O)C1(c2ccon2)CN=C(Nc2c3c(cc4c2CCC4)CCC3)O1 (stereo not drawn) [Example 56, Isopropyl 2-((1,2,3,5,6,7-hexahydro-s-indacen-4-vl)amino)-5-(isoxazol-3-yl)-4,5-dihvdrooxazole-5-carboxylate] | > 6.00 | – | –
22 | O=C(OC1CCCC1)C1(c2ccon2)CN=C(Nc2c3c(cc4c2CCC4)CCC3)O1 (stereo not drawn) [Example 57, Cyclopentyl 2-((1,2,3,5,6,7-hexahvdro-s-indacen-4-vl)amino)-5-(isoxazol-3-vl)-4,5-dihvdrooxazole-5-carboxylate] | > 6.00 | – | –
